Laboratory results published in patent US20230109010A1, “PESTICIDE COMPOSITIONS WITH SUPRAMOLECULAR STRUCTURES FOR AGRICULTURAL USE” (BPS JUST ENERGY TECHNOLOGY, LLC, priority 2020, published 2023).

What was measured:
[1] = test system: palmer amaranth; assay: Field trial in corn at V3, broadcast treatment on 2-4 inch weeds, % weed control; assay type: in vivo, Amaranthus palmeri
Source text: (§1) The herbicides tested were glufosinate, glyphosate, and mesotrione. Each herbicide was combined at the specified rate with either deionized water or SymMAX™ supramolecular host water mixture commercially available from Shotwell Hydrogenics at 15 gallons per acre (GPA). Specified rates for glufosinate were 22 ounces per acre, 11 ounces per acre, and 5.5 ounces per acre. Specified rates for glyphosate were 22 ounces per acre, 11 ounces per acre, and 5.5 ounces per acre. Specified rates for mesotrione were 3 ounces per acre, 2 ounces per acre, and 1 ounce per acre.
(§2) This example was conducted as a 4 replicate, RCBD (randomized control block design) in Quitman, GA. An untreated control was used as a standard that provided no weed control and no phytotoxicity. All treatments were compared to the untreated control. Counted dead weeds and living weeds were used to determine % weed control. The untreated control was also used to determine % crop phytotoxicity for the crop. Typical indications of phytotoxicity include chlorosis, stunting, epinasty, and/or leaf burn.
(§3) The trial ran for 14 days with weekly data assessments taken on % crop phytotoxicity and % weed control of four key species: palmer amaranth (Amaranthus palmeri), ivyleaf morning glory (Ipomoea hederacea), fall panicum (Panicum dichotomiflorum) and large crabgrass (Digitaria sanguinalis The test field was over seeded with weed seed obtained from the University of Georgia prior to corn planting. Treatments were applied as a broadcast treatment when corn had reached physiological growth stage V3 and weeds were in the 2-4″ size range. Treatments were applied at various rates ranging from about 1 ounce per acre to about 22 ounces per acre. Tables 9-10 show the % weed control when the weeds are treated with glufosinate. Tables 11-12 show the % weed control when the weeds are treated with glyphosphate. Tables 13-14 show the % weed control when the weeds are treated with mesotrione.

[2] = test system: ivyleaf morning glory; assay: as above; assay type: in vivo, Ipomoea hederacea
Source text: as §1, §2, §3

[3] = test system: fall panicum; assay: as above; assay type: in vivo, Panicum dichotomiflorum
Source text: as §1, §2, §3

[4] = test system: large crabgrass; assay: as above; assay type: in vivo, Digitaria sanguinalis
Source text: as §1, §2, §3

[5] = test system: palmer amaranth; assay: Field trial in corn, herbicide applied 3 days after planting, % weed control; assay type: in vivo, Amaranthus palmeri
Method: (§4) The herbicides tested were acetochlor and s-metolachlor. Each herbicide was combined at the specified rate with either deionized water or SymMAX™ supramolecular host chemistry that is commercially available from Shotwell Hydrogenics at 15 gallons per acre (GPA). Specified rates for acetochlor were 0.5 parts per acre, 1 part per acre, and 2 parts per acre. […]
as §2
(§5) The trial ran for 28 days with weekly data assessments taken on % crop phytotoxicity and % weed control of three key species: palmer amaranth (Amaranthus palmeri), fall panicum (Panicum dichotomiflorum) and large crabgrass (Digitaria sanguinalis). The test field was over seeded with weed seed obtained from the University of Georgia prior to corn planting. Treatments were applied 3 days after planting as a broadcast application at various rates ranging from about 0.5 parts per acre to about 2 parts per acre. Tables 1-4 show the % weed control when the weeds are treated with acetachlor. Tables 4-8 show the % weed control when the weeds are treated with s-metolachlor.

[6] = test system: fall panicum; assay: as above; assay type: in vivo, Panicum dichotomiflorum
Method: as §4, §2, §5

[7] = test system: large crabgrass; assay: as above; assay type: in vivo, Digitaria sanguinalis
Method: as §4, §2, §5

[8] = 7 days, glyphosate 5.5 ounces/acre
[9] = 7 days, glyphosate 11 ounces/acre
[10] = 7 days, glyphosate 22 ounces/acre
[11] = 14 days, glyphosate 5.5 ounces/acre
[12] = 14 days, glyphosate 11 ounces/acre
[13] = 14 days, glyphosate 22 ounces/acre
[14] = 7 days, mesotrione 1 ounce/acre
[15] = 7 days, mesotrione 2 ounces/acre
[16] = 7 days, mesotrione 3 ounces/acre
[17] = 14 days, mesotrione 1 ounce/acre
[18] = 14 days, mesotrione 2 ounces/acre
[19] = 14 days, mesotrione 3 ounces/acre
[20] = 7 days, s-metolachlor 0.75 part/acre
[21] = 7 days, s-metolachlor 1 part/acre
[22] = 7 days, s-metolachlor 1.5 parts/acre
[23] = 14 days, s-metolachlor 0.75 part/acre
[24] = 14 days, s-metolachlor 1 part/acre
[25] = 14 days, s-metolachlor 1.5 parts/acre
[26] = 21 days, s-metolachlor 0.75 part/acre
[27] = 21 days, s-metolachlor 1 part/acre
[28] = 21 days, s-metolachlor 1.5 parts/acre
[29] = 28 days, s-metolachlor 0.75 part/acre
[30] = 28 days, s-metolachlor 1 part/acre
[31] = 28 days, s-metolachlor 1.5 parts/acre

`O=C(O)CNCP(=O)(O)O` [Glyphosate, glyphosate] was tested, and the “% WEED CONTROL FOR PALMER AMARANTH” value [1, 8] was 63.8%, the “% WEED CONTROL FOR PALMER AMARANTH” value [1, 9] was 76.4% and the “% WEED CONTROL FOR PALMER AMARANTH” value [1, 10] was 81.9%. The “% WEED CONTROL FOR PALMER AMARANTH” value [1, 11] was 58.3%, the “% WEED CONTROL FOR PALMER AMARANTH” value [1, 12] was 75.8% and the “% WEED CONTROL FOR PALMER AMARANTH” value [1, 13] was 83.5%. The “% WEED CONTROL FOR IVYLEAF MORNINGLORY” value [2, 8] was 14.3%, the “% WEED CONTROL FOR IVYLEAF MORNINGLORY” value [2, 9] was 13.5% and the “% WEED CONTROL FOR IVYLEAF MORNINGLORY” value [2, 10] was 28.0%. The “% WEED CONTROL FOR IVYLEAF MORNINGLORY” value [2, 11] was 9.7%, the “% WEED CONTROL FOR IVYLEAF MORNINGLORY” value [2, 12] was 59.8% and the “% WEED CONTROL FOR IVYLEAF MORNINGLORY” value [2, 13] was 76.3%. For the same molecule, the “% WEED CONTROL FOR FALL PANICUM” value [3, 8] was 85.8%, the “% WEED CONTROL FOR FALL PANICUM” value [3, 9] was 97.5% and the “% WEED CONTROL FOR FALL PANICUM” value [3, 10] was 98.8%. The “% WEED CONTROL FOR FALL PANICUM” value [3, 11] was 81.8%, the “% WEED CONTROL FOR FALL PANICUM” value [3, 12] was 95.4% and the “% WEED CONTROL FOR FALL PANICUM” value [3, 13] was 98.4%. The “% WEED CONTROL FOR LARGE CRABGRASS” value [4, 8] was 90.8%, the “% WEED CONTROL FOR LARGE CRABGRASS” value [4, 9] was 97.8% and the “% WEED CONTROL FOR LARGE CRABGRASS” value [4, 10] was 100.0%. For the same molecule, the “% WEED CONTROL FOR LARGE CRABGRASS” value [4, 11] was 89.0%, the “% WEED CONTROL FOR LARGE CRABGRASS” value [4, 12] was 94.0% and the “% WEED CONTROL FOR LARGE CRABGRASS” value [4, 13] was 98.0%.

In the case of `CS(=O)(=O)c1ccc(C(=O)C2C(=O)CCCC2=O)c([N+](=O)[O-])c1` [Mesotrione, mesotrione], the “% WEED CONTROL FOR PALMER AMARANTH” value [1, 14] is reported as 87.4%, the “% WEED CONTROL FOR PALMER AMARANTH” value [1, 15] is reported as 97.7% and the “% WEED CONTROL FOR PALMER AMARANTH” value [1, 16] is reported as 99.0%. For the same molecule, the “% WEED CONTROL FOR PALMER AMARANTH” value [1, 17] was 95.1%, the “% WEED CONTROL FOR PALMER AMARANTH” value [1, 18] was 97.0% and the “% WEED CONTROL FOR PALMER AMARANTH” value [1, 19] was 99.3%. The “% WEED CONTROL FOR IVYLEAF MORNINGLORY” value [2, 14] was 64.5%, the “% WEED CONTROL FOR IVYLEAF MORNINGLORY” value [2, 15] was 91.6% and the “% WEED CONTROL FOR IVYLEAF MORNINGLORY” value [2, 16] was 94.2%. The “% WEED CONTROL FOR IVYLEAF MORNINGLORY” value [2, 17] was 88.8%, the “% WEED CONTROL FOR IVYLEAF MORNINGLORY” value [2, 18] was 96.5% and the “% WEED CONTROL FOR IVYLEAF MORNINGLORY” value [2, 19] was 99.1%. For the same molecule, the “% WEED CONTROL FOR FALL PANICUM” value [3, 14] was 62.8%, the “% WEED CONTROL FOR FALL PANICUM” value [3, 15] was 72.3% and the “% WEED CONTROL FOR FALL PANICUM” value [3, 16] was 87.3%. For the same molecule, the “% WEED CONTROL FOR FALL PANICUM” value [3, 17] was 54.8%, the “% WEED CONTROL FOR FALL PANICUM” value [3, 18] was 62.3% and the “% WEED CONTROL FOR FALL PANICUM” value [3, 19] was 86.0%. The “% WEED CONTROL FOR LARGE CRABGRASS” value [4, 14] was 62.3%, the “% WEED CONTROL FOR LARGE CRABGRASS” value [4, 15] was 81.5% and the “% WEED CONTROL FOR LARGE CRABGRASS” value [4, 16] was 91.5%. The “% WEED CONTROL FOR LARGE CRABGRASS” value [4, 17] was 63.0%, the “% WEED CONTROL FOR LARGE CRABGRASS” value [4, 18] was 78.8% and the “% WEED CONTROL FOR LARGE CRABGRASS” value [4, 19] was 88.5%.

`CCc1cccc(C)c1N(C(=O)CCl)[C@@H](C)COC` [S-metolachlor, s-metolachlor] was tested, and the “% WEED CONTROL FOR PALMER AMARANTH” value [5, 20] was 96.0%, the “% WEED CONTROL FOR PALMER AMARANTH” value [5, 21] was 99.3% and the “% WEED CONTROL FOR PALMER AMARANTH” value [5, 22] was 100.0%. The “% WEED CONTROL FOR PALMER AMARANTH” value [5, 23] was 94.3%, the “% WEED CONTROL FOR PALMER AMARANTH” value [5, 24] was 98.0% and the “% WEED CONTROL FOR PALMER AMARANTH” value [5, 25] was 100.0%. For the same molecule, the “% WEED CONTROL FOR PALMER AMARANTH” value [5, 26] was 96.0%, the “% WEED CONTROL FOR PALMER AMARANTH” value [5, 27] was 99.0% and the “% WEED CONTROL FOR PALMER AMARANTH” value [5, 28] was 100.0%. For the same molecule, the “% WEED CONTROL FOR PALMER AMARANTH” value [5, 29] was 98.8%, the “% WEED CONTROL FOR PALMER AMARANTH” value [5, 30] was 100.0% and the “% WEED CONTROL FOR PALMER AMARANTH” value [5, 31] was 100.0%. The “% WEED CONTROL FOR FALL PANICUM” value [6, 20] was 91.3%, the “% WEED CONTROL FOR FALL PANICUM” value [6, 21] was 97.5% and the “% WEED CONTROL FOR FALL PANICUM” value [6, 22] was 100.0%. The “% WEED CONTROL FOR FALL PANICUM” value [6, 23] was 83.5%, the “% WEED CONTROL FOR FALL PANICUM” value [6, 24] was 91.8% and the “% WEED CONTROL FOR FALL PANICUM” value [6, 25] was 97.8%. The “% WEED CONTROL FOR FALL PANICUM” value [6, 26] was 90.1%, the “% WEED CONTROL FOR FALL PANICUM” value [6, 27] was 89.4% and the “% WEED CONTROL FOR FALL PANICUM” value [6, 28] was 98.9%. For the same molecule, the “% WEED CONTROL FOR FALL PANICUM” value [6, 29] was 88.3%, the “% WEED CONTROL FOR FALL PANICUM” value [6, 30] was 97.3% and the “% WEED CONTROL FOR FALL PANICUM” value [6, 31] was 100.0%. For the same molecule, the “% WEED CONTROL FOR LARGE CRABGRASS” value [7, 20] was 92.0%, the “% WEED CONTROL FOR LARGE CRABGRASS” value [7, 21] was 99.0% and the “% WEED CONTROL FOR LARGE CRABGRASS” value [7, 22] was 100.0%. For the same molecule, the “% WEED CONTROL FOR LARGE CRABGRASS” value [7, 23] was 82.8%, the “% WEED CONTROL FOR LARGE CRABGRASS” value [7, 24] was 89.0% and the “% WEED CONTROL FOR LARGE CRABGRASS” value [7, 25] was 98.0%. For the same molecule, the “% WEED CONTROL FOR LARGE CRABGRASS” value [7, 26] was 91.3%, the “% WEED CONTROL FOR LARGE CRABGRASS” value [7, 27] was 84.3% and the “% WEED CONTROL FOR LARGE CRABGRASS” value [7, 28] was 93.0%. For the same molecule, the “% WEED CONTROL FOR LARGE CRABGRASS” value [7, 29] was 90.0%, the “% WEED CONTROL FOR LARGE CRABGRASS” value [7, 30] was 99.7% and the “% WEED CONTROL FOR LARGE CRABGRASS” value [7, 31] was 100.0%.
